Laboratory results from US4923975A, “Valiolamine derivatives and production thereof” (Takeda Chemical Industries, Ltd., priority 1985, dated 1990).

Key:
α-glucosidase [1] = conditions: in words; valiolamine and N-substituted valiolamine derivatives (European Patent Publication No. 56194 and 89812); cited from earlier work
α-glucosidase [2] = assay: α-glucosidase-inhibiting activity (stated in words); type: biochemical; conditions: VA-G and VM-G
Rhizoctonia solanii = assay: minimum concentration causing the abnormal branching at the tops of hypha of Rhizoctonia solanii; type: cell-based; conditions: method: J. Antibiotics 24,114-118 (1971)
Description: For example, the minimum concentration causing the abnormal branching at the tops of hypha of Rhizoctonia solanii [See J. Antibiotics 24,114-118 (1971)}was 0.5 μg/mL for VM-G and 2.5 μg/mL for VA-G.

[3] = tested on: sheath blight of the rice plant; assay: activity against the sheath blight of the rice plant (stated in words); conditions: VA-G and VM-G
[4] = biological target: T1, sucrase from porcine small intestine (Sus scrofa, UniProt P56729); assay: inhibition of sucrase from porcine small intestine (substrate 50 mM sucrose); type: biochemical; conditions: read-out: IC50 (molarity required for 50% inhibition of the enzymatic activity) against sucrase
T1 construct: sucrase from porcine small intestine; from tissue; host or cells: porcine small intestine
T1 sequence (P56729 with tags, fused parts or gaps limits assumed): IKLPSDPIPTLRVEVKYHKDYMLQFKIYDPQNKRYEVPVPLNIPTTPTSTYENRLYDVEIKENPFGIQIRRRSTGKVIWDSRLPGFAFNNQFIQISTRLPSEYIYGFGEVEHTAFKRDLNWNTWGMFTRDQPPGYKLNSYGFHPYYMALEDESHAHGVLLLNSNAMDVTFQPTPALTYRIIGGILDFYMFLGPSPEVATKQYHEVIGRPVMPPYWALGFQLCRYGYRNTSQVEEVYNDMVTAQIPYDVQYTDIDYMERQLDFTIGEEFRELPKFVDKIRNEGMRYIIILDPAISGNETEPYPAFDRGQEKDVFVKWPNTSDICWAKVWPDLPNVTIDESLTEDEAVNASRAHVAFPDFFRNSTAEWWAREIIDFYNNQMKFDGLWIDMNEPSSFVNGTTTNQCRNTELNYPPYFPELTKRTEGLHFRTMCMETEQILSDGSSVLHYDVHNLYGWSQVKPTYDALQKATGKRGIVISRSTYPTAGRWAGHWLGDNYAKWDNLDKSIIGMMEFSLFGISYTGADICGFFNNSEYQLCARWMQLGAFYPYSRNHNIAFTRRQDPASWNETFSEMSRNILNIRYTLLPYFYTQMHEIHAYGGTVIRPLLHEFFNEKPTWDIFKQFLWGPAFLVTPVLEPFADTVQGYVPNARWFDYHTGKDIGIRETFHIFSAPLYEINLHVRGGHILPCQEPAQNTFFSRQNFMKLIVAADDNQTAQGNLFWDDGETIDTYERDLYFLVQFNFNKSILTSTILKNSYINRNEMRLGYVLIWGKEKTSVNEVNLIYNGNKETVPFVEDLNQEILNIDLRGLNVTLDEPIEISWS
T1 sequence (P56729 with tags, fused parts or gaps partner limits assumed): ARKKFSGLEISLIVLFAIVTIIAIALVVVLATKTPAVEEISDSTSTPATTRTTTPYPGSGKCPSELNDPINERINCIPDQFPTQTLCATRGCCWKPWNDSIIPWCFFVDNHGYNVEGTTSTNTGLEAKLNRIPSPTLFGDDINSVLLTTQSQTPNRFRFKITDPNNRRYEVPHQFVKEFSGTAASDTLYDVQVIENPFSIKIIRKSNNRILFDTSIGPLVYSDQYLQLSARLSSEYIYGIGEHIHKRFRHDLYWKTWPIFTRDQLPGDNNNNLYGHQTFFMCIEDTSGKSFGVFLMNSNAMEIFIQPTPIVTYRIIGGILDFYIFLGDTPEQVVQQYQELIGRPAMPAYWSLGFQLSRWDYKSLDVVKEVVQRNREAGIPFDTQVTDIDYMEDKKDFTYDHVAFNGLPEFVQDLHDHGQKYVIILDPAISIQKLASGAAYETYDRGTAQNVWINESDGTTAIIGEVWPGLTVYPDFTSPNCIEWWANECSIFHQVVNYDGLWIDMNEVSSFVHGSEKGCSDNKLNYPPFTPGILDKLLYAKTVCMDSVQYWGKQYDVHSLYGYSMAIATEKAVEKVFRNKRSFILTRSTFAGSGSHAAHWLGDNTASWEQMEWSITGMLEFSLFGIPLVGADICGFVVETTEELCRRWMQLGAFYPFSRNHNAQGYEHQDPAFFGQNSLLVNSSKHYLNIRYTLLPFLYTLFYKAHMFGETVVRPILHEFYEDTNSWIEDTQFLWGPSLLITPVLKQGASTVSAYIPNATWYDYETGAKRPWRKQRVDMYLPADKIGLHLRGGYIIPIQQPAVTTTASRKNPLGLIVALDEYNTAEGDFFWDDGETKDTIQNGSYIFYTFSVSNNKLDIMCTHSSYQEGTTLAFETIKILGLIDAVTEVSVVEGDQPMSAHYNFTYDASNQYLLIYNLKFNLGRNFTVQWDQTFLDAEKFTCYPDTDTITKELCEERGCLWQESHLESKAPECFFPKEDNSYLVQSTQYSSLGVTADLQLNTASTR

Solubility in solvents = type: physicochemical; conditions: for solubility in water: in words, for isolation and purification
[5] = in ethanol, ethyl acetate, chloroform, and acetone
[6] = in water, dimethylsulfoxide, and methanol

Molecule | α-glucosidase-inhibitory action (α-glucosidase [1]) | other results
CC(C)(C)c1cc(CN[C@H]2C[C@](O)(CO)[C@@H](O)[C@H](O)[C@H]2O)cc(C(C)(C)C)c1O [(10), N-(3,5-di-tert-butyl-4-hydroxybenzyl)valiolamine] | potent α-glucosidase-inhibitory action | –
OC[C@@]1(O)C[C@H](NCc2ccc(Br)cc2)[C@H](O)[C@@H](O)[C@@H]1O [(6), N-(4-bromobenzyl)valiolamine] | potent α-glucosidase-inhibitory action | –
OC[C@@]1(O)C[C@H](NC[C@H](O)c2ccccc2)[C@H](O)[C@@H](O)[C@@H]1O [(7), N-[(R)-β-hydroxyphenethyl]valiolamine] | potent α-glucosidase-inhibitory action | –
OC[C@@]1(O)C[C@H](NCc2ccco2)[C@H](O)[C@@H](O)[C@@H]1O [(3), N-furfurylvaliolamine] | potent α-glucosidase-inhibitory action | –
OC[C@@]1(O)C[C@H](NC2CCCCC2)[C@H](O)[C@@H](O)[C@@H]1O [(16), N-cyclohexylvaliolamine] | potent α-glucosidase-inhibitory action | –
COc1ccccc1C(O)CN[C@H]1C[C@](O)(CO)[C@@H](O)[C@H](O)[C@H]1O (stereo partly drawn) [(9), N-(β-hydroxy-2-methoxyphenethyl)valiolamine] | potent α-glucosidase-inhibitory action | –
C[C@H]1C[C@H](O)[C@H](O)[C@@H](O)[C@@H]1N[C@H]1C[C@](O)(CO)[C@@H](O)[C@H](O)[C@H]1O [(25), N-[(1R,2S)-(2,6/3,4)-2,3,4-trihydroxy-6-methylcyclohexyl]valiolamine] | potent α-glucosidase-inhibitory action | –
OC[C@@]1(O)C[C@H](NCc2cccs2)[C@H](O)[C@@H](O)[C@@H]1O [(4), N-thenylvaliolamine] | potent α-glucosidase-inhibitory action | –
OC[C@@]1(O)C[C@H](N[C@@H]2CCCC[C@H]2O)[C@H](O)[C@@H](O)[C@@H]1O [(18), N-[(1R,2R)-2-hydroxycyclohexyl]valiolamine] | potent α-glucosidase-inhibitory action | –
C[C@H]1O[C@H](O[C@H]2[C@H](O)[C@@H](O)[C@@H]3OC[C@H]2O3)[C@H](O)[C@@H](O)[C@@H]1N[C@H]1C[C@](O)(CO)[C@@H](O)[C@H](O)[C@H]1O [(28)] | potent α-glucosidase-inhibitory action | –
OC[C@@]1(O)C[C@H](NCC=Cc2ccccc2)[C@H](O)[C@@H](O)[C@@H]1O [(2), N-(3-phenylallyl)valiolamine] | potent α-glucosidase-inhibitory action | –
OC[C@H]1C[C@@H](N[C@H]2C[C@](O)(CO)[C@@H](O)[C@H](O)[C@H]2O)[C@H](O)[C@@H](O)[C@@H]1O [(23), N-[(1R,2S)-(2,4/3,5)-2,3,4-trihydroxy-5-(hydroxymethyl)cyclohexyl]valiolamine] | potent α-glucosidase-inhibitory action | –
OCC1=C[C@H](N[C@H]2C[C@](O)(CO)[C@@H](O[C@@H]3O[C@H](CO)[C@@H](O)[C@H](O)[C@H]3O)[C@H](O)[C@H]2O)[C@H](O)[C@@H](O)[C@@H]1O [VM-G, validamycin G] | – | α-glucosidase-inhibiting activity (α-glucosidase [2]): α-glucosidase-inhibiting activity; minimal effective concentration (Rhizoctonia solanii): 0.5 µg/mL; activity against the sheath blight of the rice plant [3]: an activity against the sheath blight of the rice plant; IC50 [4]: 110 µM; Solubility in solvents (Solubility in solvents; [5]): Slightly soluble or insoluble; Solubility in solvents (Solubility in solvents; [6]): Soluble; solubility in water (Solubility in solvents): water-soluble basic substances
C[C@H]1O[C@H](O[C@H]2[C@H](O)[C@@H](O)C(O)O[C@@H]2CO)[C@H](O)[C@@H](O)[C@@H]1N[C@H]1C[C@](O)(CO)[C@@H](O)[C@H](O)[C@H]1O (stereo partly drawn) [(27), 4-O-α-[4-[[(1S)-(1,2,4,5(OH)/3,5)-2,3,4,5-tetrahydroxy-5-(hydroxymethyl)cyclohexyl]amino]-4,6-dideoxy-D-glucopyranosyl]-D-glucopyranose] | potent α-glucosidase-inhibitory action | –
OCC1=C[C@H](N[C@H]2C[C@](O)(CO)[C@@H](O)[C@H](O)[C@H]2O)[C@H](O)[C@@H](O)[C@@H]1O [VA-G, validoxylamine G] | – | α-glucosidase-inhibiting activity (α-glucosidase [2]): α-glucosidase-inhibiting activity; minimal effective concentration (Rhizoctonia solanii): 2.5 µg/mL; activity against the sheath blight of the rice plant [3]: an activity against the sheath blight of the rice plant; IC50 [4]: 8.8 µM; Solubility in solvents (Solubility in solvents; [5]): Slightly soluble or insoluble; Solubility in solvents (Solubility in solvents; [6]): Soluble; solubility in water (Solubility in solvents): water-soluble basic substances
N[C@H]1C[C@H](CO)[C@@H](N[C@H]2C[C@](O)(CO)[C@@H](O)[C@H](O)[C@H]2O)[C@H](O)[C@H]1O [(22), [(1S,2S)-(2,4,5(OH)/3,5)-2,3,4,5-tetrahydroxy-5-(hydroxymethyl)cyclohexyl][(1R,2S)-(2,6/3,4)-4-amino-2,3-dihydroxy-6-(hydroxymethyl)cyclohexyl]-amine] | potent α-glucosidase-inhibitory action | –

Molecule | α-glucosidase-inhibitory action (α-glucosidase [1]) | other results
OCC(CO)N[C@H]1C[C@](O)(CO)[C@@H](O)[C@H](O)[C@H]1O [(13), N-(1,3-dihydroxy-2-propyl)valiolamine] | potent α-glucosidase-inhibitory action | –
OC[C@@]1(O)C[C@H](NC2CCCC2O)[C@H](O)[C@@H](O)[C@@H]1O (stereo partly shown) [(19), N-(2-hydroxycyclopentyl)valiolamine] | potent α-glucosidase-inhibitory action | –
OC[C@@]1(O)C[C@H](NCC2CCCCC2)[C@H](O)[C@@H](O)[C@@H]1O [(11), N-(cyclohexylmethyl)valiolamine] | potent α-glucosidase-inhibitory action | –
OC[C@@]1(O)C[C@H](NCc2cccnc2)[C@H](O)[C@@H](O)[C@@H]1O [(5), N-(3-pyridylmethyl)valiolamine] | potent α-glucosidase-inhibitory action | –
C[C@H]1C[C@@H](O)[C@H](O)[C@@H](O)[C@@H]1N[C@H]1C[C@](O)(CO)[C@@H](O)[C@H](O)[C@H]1O [(26), N-[(1R,2S)-(2,4,6/3)-2,3,4-trihydroxy-6-methylcyclohexyl]valiolamine] | potent α-glucosidase-inhibitory action | –
OC[C@@]1(O)C[C@H](NC[C@@H](O)c2ccccc2)[C@H](O)[C@@H](O)[C@@H]1O [(8), N-[(S)-β-hydroxyphenethyl]valiolamine] | potent α-glucosidase-inhibitory action | –
C[C@H]1C[C@H](N)[C@H](O)[C@@H](O)[C@@H]1N[C@H]1C[C@](O)(CO)[C@@H](O)[C@H](O)[C@H]1O [(24), N-[(1R,2S)-(2,6/3,4)-4-amino-2,3-dihydroxy-6-methylcyclohexyl]valiolamine] | potent α-glucosidase-inhibitory action | –
OC[C@H](N[C@H]1C[C@](O)(CO)[C@@H](O)[C@H](O)[C@H]1O)c1ccccc1 [(15), N-[(R)-o-(hydroxymethyl)benzyl]valiolamine] | potent α-glucosidase-inhibitory action | –
OC[C@@]1(O)C[C@H](NCCc2ccccc2)[C@H](O)[C@@H](O)[C@@H]1O [(1), N-phenethylvaliolamine] | potent α-glucosidase-inhibitory action | –
OCC(N[C@H]1C[C@](O)(CO)[C@@H](O)[C@H](O)[C@H]1O)C(O)c1ccccc1 (stereo partly shown) [(14), N-(1,3-dihydroxy-1-phenyl-2-propyl)valiolamine] | potent α-glucosidase-inhibitory action | –
CO[C@H]1O[C@H](C)[C@@H](N[C@H]2C[C@](O)(CO)[C@@H](O)[C@H](O)[C@H]2O)[C@H](O)[C@H]1O [(20), Methyl 4-[(1S,2S)-(2,4,5(OH)/3,5)-2,3,4,5-tetrahydroxy-5-(hydroxymethyl)cyclohexyl]amino-4,6-dideoxy-α-D-glucopyranoside] | potent α-glucosidase-inhibitory action | –
Methyl 4-[(1S,2S)-(2,4,5(OH)/3,5)-2,3,4,5-deoxy-α-D-glucopyranoside [(21)] | potent α-glucosidase-inhibitory action | –
N[C@H]1C[C@](O)(CO)[C@@H](O)[C@H](O)[C@H]1O [Valiolamine, valiolamine] | potent α-glucosidase-inhibitor | –
CC(C)=CCC/C(C)=C/CN[C@H]1C[C@](O)(CO)[C@@H](O)[C@H](O)[C@H]1O [(12), N-geranylvaliolamine] | potent α-glucosidase-inhibitory action | –
OC[C@@]1(O)C[C@H](NC2CCCCC2O)[C@H](O)[C@@H](O)[C@@H]1O (stereo partly shown) [(17), N-(2-hydroxycyclohexyl)valiolamine] | potent α-glucosidase-inhibitory action | –
